The text below walks through data of US20250382344A1, “Soluble GLP1/GIP/NPY2 Receptor Triple Agonists” (Boehringer Ingelheim International GmH, priority 2024, published 2025).

The term solubility denotes the concentration that dissolves in the medium under given conditions.

Read-outs that look alike come from different tables or passages of the source.

The target of one data set is T1, hGLP1R (Homo sapiens, UniProt P43220).
T1 construct: expressed in transfected cells; host or cells: HEK-293 CRE-luciferase reporter cells
T1 sequence (P43220 24-463): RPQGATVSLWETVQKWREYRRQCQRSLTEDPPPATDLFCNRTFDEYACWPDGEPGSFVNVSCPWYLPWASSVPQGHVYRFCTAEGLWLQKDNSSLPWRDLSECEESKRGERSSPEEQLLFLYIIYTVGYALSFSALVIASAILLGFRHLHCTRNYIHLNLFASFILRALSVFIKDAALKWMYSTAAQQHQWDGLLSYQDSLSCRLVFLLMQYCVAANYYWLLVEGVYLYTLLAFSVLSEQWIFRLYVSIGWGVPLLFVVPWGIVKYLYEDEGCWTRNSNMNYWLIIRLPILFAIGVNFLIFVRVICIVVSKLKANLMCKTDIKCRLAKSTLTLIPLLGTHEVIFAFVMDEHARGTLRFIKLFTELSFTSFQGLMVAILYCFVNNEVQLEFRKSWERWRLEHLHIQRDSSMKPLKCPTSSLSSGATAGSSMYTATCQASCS
Put plainly: hGLP1R CreLuc assay in 0.5% and 100% plasma (HEK-293 CRE-luciferase reporter cells). In kind it is cell-based. Conditions: HEK-293 reporter cells.

For the next data set, the target named is T2, hGIPR (Homo sapiens, UniProt P48546).
T2 construct: expressed in transfected cells; host or cells: CHO CRE-luciferase reporter cells
T2 sequence (P48546 22-466): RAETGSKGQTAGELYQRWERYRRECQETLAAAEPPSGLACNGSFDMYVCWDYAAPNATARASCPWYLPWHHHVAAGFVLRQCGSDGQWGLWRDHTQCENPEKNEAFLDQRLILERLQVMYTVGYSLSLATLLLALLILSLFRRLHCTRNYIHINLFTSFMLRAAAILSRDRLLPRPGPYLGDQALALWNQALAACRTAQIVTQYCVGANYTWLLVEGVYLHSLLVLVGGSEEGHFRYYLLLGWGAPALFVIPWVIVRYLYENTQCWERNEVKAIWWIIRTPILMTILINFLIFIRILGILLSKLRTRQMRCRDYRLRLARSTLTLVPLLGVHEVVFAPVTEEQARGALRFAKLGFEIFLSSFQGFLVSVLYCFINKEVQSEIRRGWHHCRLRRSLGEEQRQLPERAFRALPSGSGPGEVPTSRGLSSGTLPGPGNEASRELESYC
As to the kind of experiment: hGIPR CreLuc assay in 0.5% and 100% plasma (CHO CRE-luciferase reporter cells). In kind it is cell-based. (In a reporter assay the amount or activity of a reporter protein is the signal.)

A short description of data set [1]: Solubility in 0.1 M phosphate buffer at pH 7. In kind it is physicochemical. To be noted: 0.1 M phosphate buffer at pH 7, 10 mg/mL final peptide concentration, shaking 2 hours at room temperature, peptides as TFA-salts; measured sample pH 6.5-7.0.
[2] abbreviates: 0.5% human plasma, read-out: hGLP1R 0.5% hP.
Where [3] appears, read: 100% human plasma, read-out: hGLP1R 100% hP.
[4] abbreviates: 0.5% human plasma, read-out: hGIPR 0.5% hP.

As to `CC[C@H](C)[C@H](NC(=O)[C@H](CC(C)C)NC(=O)[C@H](Cc1c[nH]cn1)NC(=O)[C@H](CCCNC(=N)N)NC(=O)[C@@H](NC(=O)[C@H](Cc1ccccc1)NC(=O)[C@H](C)NC(=O)C(C)(C)NC(=O)[C@H](CCC(N)=O)NC(=O)[C@H](C)NC(=O)[C@H](CCC(N)=O)NC(=O)[C@H](CCC(N)=O)NC(=O)[C@H](CCC(=O)O)NC(=O)[C@H](CC(C)C)NC(=O)C(C)(C)NC(=O)[C@@H](NC(=O)[C@H](CO)NC(=O)[C@H](Cc1ccc(O)cc1)NC(=O)[C@H](CC(=O)O)NC(=O)[C@H](CO)NC(=O)[C@@H](NC(=O)[C@H](Cc1ccccc1)NC(=O)[C@@H](NC(=O)CNC(=O)[C@H](CCC(=O)O)NC(=O)C(C)(C)NC(=O)[C@@H](N)Cc1ccc(O)cc1)[C@@H](C)O)[C@@H](C)O)[C@@H](C)CC)C(C)C)C(=O)N[C@@H](CC(N)=O)C(=O)N[C@@H](CCCCNC(=O)CC[C@H](NC(=O)CC[C@H](NC(=O)CC[C@H](NC(=O)CC[C@H](NC(=O)CC[C@H](NC(=O)CCCCCCCCCCCCCCCCC(=O)O)C(=O)O)C(=O)O)C(=O)O)C(=O)O)C(=O)O)C(=O)NC(C)(C)C(=O)N[C@H](C(=O)N[C@@H](CCCNC(=N)N)C(=O)N[C@@H](CCC(N)=O)C(=O)N[C@@H](CCCNC(=N)N)C(=O)N[C@@H](Cc1ccc(O)cc1)C(N)=O)[C@@H](C)O` [Compound 42, Y-Aib-E-G-T-F-T-S-D-Y-S-I-Aib-L-E-Q-Q-A-Q-Aib-A-F-V-R-H-L-I-N-K(1,3)-Aib-T-R-Q-R-Y-NH2.C18DA-gGlu-gGlu-gGlu-gGlu-gGlu(1,2)], the results for the EC50 on hGLP1R (setting [2]), on hGLP1R (setting [3]) and on hGIPR (setting [4]) were 0.9 nM, 14.5 nM and 0.2 nM, respectively. Moreover, in data set [1], the solubility at 2 h is 4300 µg/mL.
With `CC[C@H](C)[C@H](NC(=O)[C@H](CC(C)C)NC(=O)[C@H](Cc1c[nH]cn1)NC(=O)[C@H](CCCNC(=N)N)NC(=O)[C@@H](NC(=O)[C@H](Cc1ccccc1)NC(=O)[C@H](C)NC(=O)C(C)(C)NC(=O)[C@H](CCC(N)=O)NC(=O)[C@H](C)NC(=O)[C@H](CCC(N)=O)NC(=O)[C@H](CCCCN)NC(=O)[C@H](CCC(=O)O)NC(=O)[C@H](CC(C)C)NC(=O)C(C)(C)NC(=O)[C@@H](NC(=O)[C@H](CO)NC(=O)[C@H](Cc1ccc(O)cc1)NC(=O)[C@H](CC(=O)O)NC(=O)[C@H](CO)NC(=O)[C@@H](NC(=O)[C@H](Cc1ccccc1)NC(=O)[C@@H](NC(=O)CNC(=O)[C@H](CCC(=O)O)NC(=O)C(C)(C)NC(=O)[C@@H](N)Cc1ccc(O)cc1)[C@@H](C)O)[C@@H](C)O)[C@@H](C)CC)C(C)C)C(=O)N[C@@H](CC(N)=O)C(=O)N[C@@H](CCCCNC(=O)[C@@H](N)CCCCNC(=O)CC[C@H](NC(=O)CC[C@H](NC(=O)CC[C@H](NC(=O)CC[C@H](NC(=O)CC[C@H](NC(=O)CC[C@H](NC(=O)CCCCCCCCCCCCCCCCC(=O)O)C(=O)O)C(=O)O)C(=O)O)C(=O)O)C(=O)O)C(=O)O)C(=O)NC(C)(C)C(=O)N[C@H](C(=O)N[C@@H](CCCNC(=N)N)C(=O)N[C@@H](CCC(N)=O)C(=O)N(C)[C@@H](CCCNC(=N)N)C(=O)N[C@@H](Cc1ccc(O)cc1)C(N)=O)[C@@H](C)O` [Compound 43, Y-Aib-E-G-T-F-T-S-D-Y-S-I-Aib-L-E-K-Q-A-Q-Aib-A-F-V-R-H-L-I-N-K(1,3)-Aib-T-R-Q-NMeR-Y-NH2.C18DA-gGlu-gGlu-gGlu-gGlu-gGlu-gGlu-eLys(1,2)], the EC50 was 0.6 nM on hGLP1R (setting [2]); 3 nM at hGLP1R (setting [3]); 0.1 nM at hGIPR (setting [4]); 2.8 nM on hGIPR (100% human plasma, read-out: hGIPR 100% hP). In addition, in data set [1], the solubility at 2 h worked out at 4300 µg/mL.
As to `CC[C@H](C)[C@H](NC(=O)[C@H](CC(C)C)NC(=O)[C@H](Cc1c[nH]cn1)NC(=O)[C@H](CCCNC(=N)N)NC(=O)[C@@H](NC(=O)[C@H](Cc1ccccc1)NC(=O)[C@H](C)NC(=O)C(C)(C)NC(=O)[C@H](CCC(N)=O)NC(=O)[C@H](C)NC(=O)[C@H](CCC(N)=O)NC(=O)[C@H](CCCCN)NC(=O)[C@H](CCC(=O)O)NC(=O)[C@H](CC(C)C)NC(=O)C(C)(C)NC(=O)[C@@H](NC(=O)[C@H](CO)NC(=O)[C@H](Cc1ccc(O)cc1)NC(=O)[C@H](CC(=O)O)NC(=O)[C@H](CO)NC(=O)[C@@H](NC(=O)[C@H](Cc1ccccc1)NC(=O)[C@@H](NC(=O)CNC(=O)[C@H](CCC(=O)O)NC(=O)C(C)(C)NC(=O)[C@@H](N)Cc1ccc(O)cc1)[C@@H](C)O)[C@@H](C)O)[C@@H](C)CC)C(C)C)C(=O)N[C@@H](CC(N)=O)C(=O)N[C@@H](CCCCNC(=O)CCCCCNC(=O)CCCCCNC(=O)CC[C@H](NC(=O)CC[C@H](NC(=O)CC[C@H](NC(=O)CC[C@H](NC(=O)CC[C@H](NC(=O)CCCCCCCCCCCCCCCCC(=O)O)C(=O)O)C(=O)O)C(=O)O)C(=O)O)C(=O)O)C(=O)NC(C)(C)C(=O)N[C@H](C(=O)N[C@@H](CCCNC(=N)N)C(=O)N[C@@H](CCC(N)=O)C(=O)N[C@@H](CCCNC(=N)N)C(=O)N[C@@H](Cc1ccc(O)cc1)C(N)=O)[C@@H](C)O` [Compound 44, Y-Aib-E-G-T-F-T-S-D-Y-S-I-Aib-L-E-K-Q-A-Q-Aib-A-F-V-R-H-L-I-N-K(1,3)-Aib-T-R-Q-R-Y-NH2.C18DA-gGlu-gGlu-gGlu-gGlu-gGlu-AHX-AHX(1,2)], the figures for the EC50 at hGLP1R (setting [2]) and on hGIPR (setting [4]) were 0.2 nM and 0.1 nM, respectively. Moreover, the solubility at 2 h in data set [1] was 9800 µg/mL.
In the same order, the values of `CC[C@H](C)[C@H](NC(=O)[C@H](CC(C)C)NC(=O)[C@H](Cc1c[nH]cn1)NC(=O)[C@H](CCCNC(=N)N)NC(=O)[C@@H](NC(=O)[C@H](Cc1ccccc1)NC(=O)[C@H](C)NC(=O)C(C)(C)NC(=O)[C@H](CCC(N)=O)NC(=O)[C@H](C)NC(=O)[C@H](CCC(N)=O)NC(=O)[C@H](CCC(=O)O)NC(=O)[C@H](CCC(=O)O)NC(=O)[C@H](CC(C)C)NC(=O)C(C)(C)NC(=O)[C@@H](NC(=O)[C@H](CO)NC(=O)[C@H](Cc1ccc(O)cc1)NC(=O)[C@H](CC(=O)O)NC(=O)[C@H](CO)NC(=O)[C@@H](NC(=O)[C@H](Cc1ccccc1)NC(=O)[C@@H](NC(=O)CNC(=O)[C@H](CCC(=O)O)NC(=O)C(C)(C)NC(=O)[C@@H](N)Cc1ccc(O)cc1)[C@@H](C)O)[C@@H](C)O)[C@@H](C)CC)C(C)C)C(=O)N[C@@H](CC(N)=O)C(=O)N[C@@H](CCCCNC(=O)[C@@H](N)CCCCNC(=O)CC[C@H](NC(=O)CC[C@H](NC(=O)CC[C@H](NC(=O)CC[C@H](NC(=O)CC[C@H](NC(=O)CCCCCCCCCCCCCCCCC(=O)O)C(=O)O)C(=O)O)C(=O)O)C(=O)O)C(=O)O)C(=O)NC(C)(C)C(=O)N[C@H](C(=O)N[C@@H](CCCNC(=N)N)C(=O)N[C@@H](CCC(N)=O)C(=O)N[C@@H](CCCNC(=N)N)C(=O)N[C@@H](Cc1ccc(O)cc1)C(N)=O)[C@@H](C)O` [Compound 48, Y-Aib-E-G-T-F-T-S-D-Y-S-I-Aib-L-E-E-Q-A-Q-Aib-A-F-V-R-H-L-I-N-K(1,3)-Aib-T-R-Q-R-Y-NH2.C18DA-gGlu-gGlu-gGlu-gGlu-gGlu-eLys(1,2)] are 0.5 nM, 0.1 nM and 7700 µg/mL.
Taken in the same sequence, the figures for `CC[C@H](C)[C@H](NC(=O)[C@H](CC(C)C)NC(=O)[C@H](Cc1c[nH]cn1)NC(=O)[C@H](CCCNC(=N)N)NC(=O)[C@@H](NC(=O)[C@H](Cc1ccccc1)NC(=O)[C@H](C)NC(=O)C(C)(C)NC(=O)[C@H](CCC(N)=O)NC(=O)[C@H](C)NC(=O)[C@H](CCC(N)=O)NC(=O)[C@H](CCCCN)NC(=O)[C@H](CCC(=O)O)NC(=O)[C@H](CC(C)C)NC(=O)[C@](C)(CC(C)C)NC(=O)[C@@H](NC(=O)[C@H](CO)NC(=O)[C@H](Cc1ccc(O)cc1)NC(=O)[C@H](CC(=O)O)NC(=O)[C@H](CO)NC(=O)[C@@H](NC(=O)[C@H](Cc1ccccc1)NC(=O)[C@@H](NC(=O)CNC(=O)[C@H](CCC(=O)O)NC(=O)C(C)(C)NC(=O)[C@@H](N)Cc1ccc(O)cc1)[C@@H](C)O)[C@@H](C)O)[C@@H](C)CC)C(C)C)C(=O)N[C@@H](CC(N)=O)C(=O)N[C@@H](CCCCNC(=O)CC[C@H](NC(=O)CC[C@H](NC(=O)CC[C@H](NC(=O)CC[C@H](NC(=O)CC[C@H](NC(=O)CC[C@H](NC(=O)CCCCCCCCCCCCCCCCCCC(=O)O)C(=O)O)C(=O)O)C(=O)O)C(=O)O)C(=O)O)C(=O)O)C(=O)NC(C)(C)C(=O)N[C@H](C(=O)N[C@@H](CCCNC(=N)N)C(=O)N[C@@H](CCC(N)=O)C(=O)N[C@@H](CCCNC(=N)N)C(=O)N[C@@H](Cc1ccc(O)cc1)C(N)=O)[C@@H](C)O` [Compound 49, Y-Aib-E-G-T-F-T-S-D-Y-S-I-aMeL-L-E-K-Q-A-Q-Aib-A-F-V-R-H-L-I-N-K(1,3)-Aib-T-R-Q-R-Y-NH2.C20DA-gGlu-gGlu-gGlu-gGlu-gGlu-gGlu(1,2)] were 0.3 nM, 0.1 nM and 10000 µg/mL.
